Reference: PMC11298430, “Synthesis and In vitro evaluation of bichalcones as novel anti-toxoplasma agents” (Frontiers in Chemistry, 2024)
Read-outs that look alike come from different tables or passages of the source.

Experiments:
[1] = test system: Toxoplasma gondii ME49 tachyzoites; test: Toxoplasma gondii in vitro inhibition assay (3H-uracil incorporation); format: cell-based
MTT cytotoxicity assay = format: cell-based; conditions: human
Procedure: (§1) The MTT [3-(4, 5-dimethylthiazole-2-yl)-2, 5-diphenyltetrazolium bromide] reduction assay ([Mosmann, 1983]) was used to quantify the cytotoxic effects of the examined chalcones and bichalcones on the host cells. To avoid edge effects, only the inner 60 wells of each plate were used. Briefly, 5 × 10^4 Hs27 cells per well were cultured in 96-well microtiter plates in Iscove’s modified Dulbecco’s medium (IMDM, Gibco–Thermo Fisher Scientific, Braunschweig, Germany, #12440053) with a volume of 100 µL per well and incubated overnight at 37°C until confluence. Different concentrations of the compounds (ranging from 200 μM to 0.09 µM) were then added to the Hs27 cells. Controls included untreated Hs27 cells treated with DMSO, and cells treated with staurosporine (0.031, 0.062, 0.125, 0.25, 0.5, 1 µM) (Merck, Darmstadt, Germany, #S4400), a natural product known for its potent activity as apoptosis inducer ([Belmokhtar et al., 2001]). After 24 h of incubation, the culture media were replaced with 100 µL of Dulbecco’s Modified Eagle Medium (DMEM) medium without red phenol (Gibco-Thermo Fisher Scientific, Braunschweig, Germany, #21041025) plus 10% heat-inactivated fetal bovine serum (FBS Standard, South America origin, fetal bovine serum, […] sterile filtered, PAN-Biotech, Aidenbach, Germany, #P30-3,306), and […] 2-mercaptoethanol (Gibco-Thermo Fisher Scientific, Braunschweig, Germany, #21985023). The experiment was performed following the manufacturer’s instructions (CyQuant MTT Cell Viability Assay Kit, Thermo Fisher Scientific, Braunschweig, Germany, #V-13154). Optical density (O.D.) was measured at 570 nm using a microplate reader (TECAN Sunrise, Männedorf, Switzerland). The half-maximal cytotoxic concentration (CC50) values of each compound against Hs27 cells relative to DMSO-treated samples were determined using GraphPad PRISM™ statistical software (version 9.5.1; San Diego, CA). In addition, the selectivity index (SI) of each compound was calculated from the ratio of CC50/IC50.

Toxoplasma gondii = test system: Toxoplasma gondii; design: method as in Touquet et al., 2018; conditions: literature value ref Touquet et al., 2018; cited from earlier work
human fibroblasts Hs27 = test: MTT cytotoxicity assay; format: cell-based; conditions: 24 h
Procedure: as §1

[2] = Stability experiments (reverse phase HPLC purity); format: physicochemical
Procedure: Table S3: Purity results of the stability experiments over a varying time span at different
Entry Variations Time Purity [%]
Table S4: Reverse Phase HPLC chromatogram of bichalcone 2ab (rac) in DMSO stock solution […]
Table S5: Reverse Phase HPLC chromatogram of bichalcone 2ab (rac) in DMSO stock solution
Table S6: Reverse Phase HPLC chromatogram of bichalcone 2ab (rac) in DMSO at -78 °C for […]

[3] = Toxoplasma gondii, HS27, T. gondii ME49 tachyzoites in Hs27 host cells, 3H-uracil incorporation, n = 6, read-out: IC50 ± S.D.
[4] = T. gondii ME49 tachyzoites in Hs27 host cells, 3H-uracil incorporation, n = 6, read-out: IC50 ± S.D.
[5] = Toxoplasma gondii, HS27, read-out: IC50 ± S.D.
[6] = Hs27 cells, MTT, 24 h, n = 6, read-out: CC50

Row | SMILES | IC50 [1, 3] [µM] | CC50 at 24 h (MTT cytotoxicity assay) [µM] | other results
1 | COc1cc(C)cc(O)c1C(=O)/C=C/c1ccc(Br)cc1 [1ae] | 10.6 ± 1.05 | 190 ± 99 | 
2 | COc1cc(C)cc(O)c1C(=O)/C=C/c1ccccc1Br [1ag] | > 50 | > 200 | 
3 | COc1cc(OC)c(-c2c(OC)cc(OC)c(C(=O)/C=C/c3ccc(N(C)C)cc3)c2O)c(O)c1C(=O)/C=C/c1ccc(N(C)C)cc1 [2bc] | > 50 | > 200 | 
4 | COc1cc(OC)c(-c2c(OC)cc(OC)c(C(=O)/C=C/c3ccccc3)c2O)c(O)c1C(=O)/C=C/c1ccccc1 [2bb] | 9.75 ± 1.95 | > 200 | 
5 | COc1cc(C)c(-c2c(C)cc(OC)c(C(=O)/C=C/c3ccc(C(F)(F)F)cc3)c2O)c(O)c1C(=O)/C=C/c1ccc(C(F)(F)F)cc1 [2ad] | 24.7 ± 3.52 | > 200 | 
6 | COc1ccc(/C=C/C(=O)c2c(OC)cc(OC)c(-c3c(OC)cc(OC)c(C(=O)/C=C/c4ccc(OC)cc4)c3O)c2O)cc1 [2ba] | > 50 | > 200 | 
7 | COc1cc(OC)c(-c2c(OC)cc(OC)c(C(=O)/C=C/c3ccc(Br)cc3)c2O)c(O)c1C(=O)/C=C/c1ccc(Br)cc1 [2be] | 8.55 ± 1.28 | > 200 | 
8 | COc1cc(O)c(C(=O)/C=C/c2cccc(Br)c2)c(OC)c1 [1bf] | 11.3 ± 0.61 | > 200 | 
9 | COc1cc(C)cc(O)c1C(=O)/C=C/c1ccccc1 [1ab] | 14.1 ± 2.62 | 133 ± 28 | 
10 | COc1cc(O)c(C(=O)/C=C/c2ccccc2)c(OC)c1 [1bb] | 6.01 ± 2.54 | 87.8 ± 16 | 
11 | COc1cc(C)c(-c2c(C)cc(OC)c(C(=O)/C=C/c3ccccc3)c2O)c(O)c1C(=O)/C=C/c1ccccc1 (single isomer, unassigned) [(S a)-2ab] |  | > 200 | IC50 [1, 4]: 0.31 ± 0.03 µM
12 | CCc1nc(N)nc(N)c1-c1ccc(Cl)cc1 [PYR, pyrimethamine, reference compound] | 0.22 ± 0.05 | > 100 | IC50 (Toxoplasma gondii): 0.4 µM
13 | COc1cc(C)cc(O)c1C(=O)/C=C/c1ccc(C(F)(F)F)cc1 [1ad] | > 50 | > 200 | 
14 | COc1cc(C)c(-c2c(C)cc(OC)c(C(=O)/C=C/c3ccc(Br)cc3)c2O)c(O)c1C(=O)/C=C/c1ccc(Br)cc1 [2ae] | 7.91 ± 1.14 | > 200 | 
15 | COc1ccc(/C=C/C(=O)c2c(O)cc(OC)cc2OC)cc1 [1ba] | 8.08 ± 2.06 | > 200 | 
16 | COc1cc(C)cc(O)c1C(=O)/C=C/c1ccc(N(C)C)cc1 [1ac] | > 50 | > 200 | 

Row | SMILES | IC50 [1, 3] [µM] | CC50 at 24 h (MTT cytotoxicity assay) [µM] | other results
17 | COc1cc(OC)c(-c2c(OC)cc(OC)c(C(=O)/C=C/c3cccc(Br)c3)c2O)c(O)c1C(=O)/C=C/c1cccc(Br)c1 [2bf] | 12.4 ± 2.09 | > 200 | 
18 | COc1cc(O)c(C(=O)/C=C/c2ccc(N(C)C)cc2)c(OC)c1 [1bc] |  |  | IC50 [1, 5]: > 50 µM; CC50 at 24 h (MTT cytotoxicity assay; [6]): > 200 µM
19 | COc1cc(O)c(C(=O)/C=C/c2ccc(C(F)(F)F)cc2)c(OC)c1 [1bd] | > 50 | > 200 | 
20 | COc1cc(C)c(-c2c(C)cc(OC)c(C(=O)/C=C/c3ccccc3Br)c2O)c(O)c1C(=O)/C=C/c1ccccc1Br [2ag] | 18.44 ± 0.1 | > 200 | 
21 | COc1ccc(/C=C/C(=O)c2c(O)cc(C)cc2OC)cc1 [1aa] | 21.8 ± 3.07 | 180 ± 32 | 
22 | COc1cc(C)c(-c2c(C)cc(OC)c(C(=O)/C=C/c3cccc(Br)c3)c2O)c(O)c1C(=O)/C=C/c1cccc(Br)c1 [2af] | 30.5 ± 7.21 | > 200 | 
23 | COc1cc(C)c(-c2c(C)cc(OC)c(C(=O)/C=C/c3ccc(N(C)C)cc3)c2O)c(O)c1C(=O)/C=C/c1ccc(N(C)C)cc1 [2ac] | > 50 | > 200 | 
24 | COc1cc(O)c(C(=O)/C=C/c2ccccc2Br)c(OC)c1 [1bg] |  |  | IC50 [1, 5]: 4.46 ± 0.46 µM; CC50 at 24 h (MTT cytotoxicity assay; [6]): 86.5 ± 72 µM
25 | COc1cc(C)cc(O)c1C(=O)/C=C/c1cccc(Br)c1 [1af] | 6.18 ± 0.55 | 134 ± 78 | 
26 | COc1cc(O)c(C(=O)/C=C/c2ccc(Br)cc2)c(OC)c1 [1be] |  |  | IC50 [1, 5]: > 50 µM; CC50 at 24 h (MTT cytotoxicity assay; [6]): > 200 µM
27 | COc1cc(C)c(-c2c(C)cc(OC)c(C(=O)/C=C/c3ccccc3)c2O)c(O)c1C(=O)/C=C/c1ccccc1 (single isomer, unassigned) [(R a)-2ab] |  |  | IC50 [1, 4]: 0.1 ± 0.01 µM; CC50 (human fibroblasts Hs27): > 200 µM
28 | COc1cc(OC)c(-c2c(OC)cc(OC)c(C(=O)/C=C/c3ccccc3Br)c2O)c(O)c1C(=O)/C=C/c1ccccc1Br [2bg] | > 50 | > 200 | 
29 | COc1ccc(/C=C/C(=O)c2c(OC)cc(C)c(-c3c(C)cc(OC)c(C(=O)/C=C/c4ccc(OC)cc4)c3O)c2O)cc1 [2aa] | 6.63 ± 0.77 | > 200 | 
30 | COc1cc(OC)c(-c2c(OC)cc(OC)c(C(=O)/C=C/c3ccc(C(F)(F)F)cc3)c2O)c(O)c1C(=O)/C=C/c1ccc(C(F)(F)F)cc1 [2bd] | 3.09 ± 0.15 | > 200 | 
31 | COc1cc(C)c(-c2c(C)cc(OC)c(C(=O)/C=C/c3ccccc3)c2O)c(O)c1C(=O)/C=C/c1ccccc1 (racemic) [2ab] | 0.11 ± 0.02 | > 200 | Purity ([2]; 22 °C, DMSO, 24 h): 75.9%; Purity ([2]; 40 °C, DMSO, 24 h): 76.6%; Purity ([2]; 40 °C, MeOH, 24 h): 89.7%; Purity ([2]; 40 °C, MeOH, KOH, 24 h): 35.6%; Purity ([2]; -20 °C, DMSO, 6 months): 96.2%
